For 26 molecules, inhibition results are on record in patent publication US8410109B2, “Pharmaceutical compositions for the prevention and treatment of complex diseases and their delivery by insertable medical devices” (Resverlogix Corp., priority 2005, dated 2013).

Where a name gives a salt, the structure may show the parent alone.

Format in all cases: cell-based
One experiment concerns MCP-1. Put plainly: MCP-1 ELISA on culture media of TNF-α stimulated HUVECs. To be noted: Homo sapiens, HUVEC, approx. 16 hours. As for the experimental part:
(§1) Compounds were dissolved in DMSO, aliquoted, and stored at −20° C. Cultured human vascular endothelial cells (HUVECs) were seeded in 96-well plates in complete EGM-2 media (˜100 μL/well); cells were plated at ˜2-3×10^5/mL, and were from passage 8 to 12. Cells were incubated overnight. On the following day cells are stimulated with TNF-α (˜1 ng/mL) in the presence or absence of compounds dissolved in DMSO. Triplicate wells were used for each test. To establish a dose curve and an IC50, multiple concentrations in 2- to 5-fold increments were used. Cells were exposed to TNF-α and compounds for approximately 16 hours. The next day, cells were visually examined via light microscopy to score for visual signs of toxicity. Cell culture media was analyzed using an MCP-1 ELISA. Cells were refed (−100 μL/well) with 20% CellTiter 96. Aqueous One Cell Proliferation Solution (Promega), 80% EGM-2 medium. Media optical density (at 490 nm) was determined after 1 hour. Plates were aspirated and cell lysates were prepared and these lysates were tested using a VCAM-1 ELISA.
(§2) In Table 2, a positive result (+) was defined as at least 50% inhibition of the protein levels MCP-1 or VCAM-1, as determined by the ELISA.

The test system of the next experiment is VCAM-1. The experiment in a line: VCAM-1 ELISA on lysates of TNF-α stimulated HUVECs. As to conditions: Homo sapiens, HUVEC, approx. 16 hours. As for the experimental part:
as §1, §2

The test system of experiment [1] is Human coronary artery smooth muscle cells (CASMCs). The experiment in a line: Smooth muscle cell proliferation protocol. As to conditions: 72 hours, read-out: % Inhibition of SMC Proliferation. As for the experimental part: Compounds were dissolved in DMSO, aliquoted, and stored at −20° C. Human coronary artery smooth muscle cells (CASMCs) were plated in 96-well plates and were grown in SmBM-2 media. After 1-2 hours, media was aspirated and replaced with serum-free ME/F12 media, except the controls. Cells were incubated for a further 48 hours. Compounds were diluted in DME/F12 containing 10% FBS. Media was aspirated from the plates and compounds in DME/F12 containing 10% FBS. Six wells were used per condition and duplicate plates were used. Cells were incubated for a further 72 hours. Media was aspirated from one set of plates; those cells were refed (˜100 μL/well) with 20% CellTiter 96 Aqueous One Cell Proliferation Solution (Promega), 80% EGM-2 medium. Media optical density (at 490 nm) was determined after 3-4 hours. In the second set of plates, serum-free DME/F12 media (20 μL) was added to each well. Part of the supernatant (50 μL) was removed and placed in an ELISA plate and was stored temporarily at 4° C. The remaining media and cells in the second set of plates were freeze-thawed for four cycles. The lysates and supernatants were mixed and centrifuged. Part of the supernatant (50 μL) was removed and placed in an ELISA plate. The Promega Cytotox assay was performed on the ELISA plates. The ratio of supernatant OD to supernatant+cell lysate OD was determined.
In Table 2, a positive result (+) was defined as at least 40% inhibition of the proliferation of SMC, as determined by the assay.

In the case of `CC(C)(Sc1cc(C(C)(C)C)c(O)c(C(C)(C)C)c1)Sc1cc(C(C)(C)C)c(OC(=O)CCC(=O)O)c(C(C)(C)C)c1` [AGI1067, reference compound], the results for the inhibition at 5 µM with MCP-1 (5 uM) and in the experiment on VCAM-1 (5 uM) were 60% and 68%, respectively.
Regarding `O=c1cc(-c2ccc(O)cc2)oc2ncccc12` [EXAMPLE 1, 2-(4-Hydroxy-phenyl)-pyrano[2,3-b]pyridin-4-one], the results for the inhibition at 50 µM (with MCP-1; in experiment [1]; with VCAM-1) were under 50%, under 40% and at least 50%, respectively.
For the molecule `O=c1cc(-c2ccc(O)cc2)oc2cccnc12` [EXAMPLE 2, 2-(4-Hydroxy-phenyl)-pyrano[3,2-b]pyridin-4-one], the results for the inhibition at 50 µM (with MCP-1; in experiment [1]; with VCAM-1) were under 50%, at least 40% and under 50%, respectively.
On to `O=c1cc(-c2ccc(O)cn2)oc2ccccc12` [EXAMPLE 11, 2-(5-Hydroxy-pyridin-2-yl)chromen-4-one], for which the inhibition at 50 µM in the experiment with MCP-1 was under 50%; in experiment [1], under 40%; in the experiment on VCAM-1, under 50%.
`O=c1cc(-c2ccncc2)oc2ccccc12` [EXAMPLE 12, 2-Pyridin-4-yl-chromen-4-one]: the inhibition at 50 µM in the experiment on MCP-1 is at least 50%; in experiment [1], at least 40%; in the experiment with VCAM-1 it was at least 50%.
Take `O=c1cc(-c2ccc(O)cc2)[nH]c2ccccc12` [EXAMPLE 14, 2-(4-Hydroxy-phenyl)-1H-quinolin-4-one]: the values for the inhibition at 50 µM (in the experiment on MCP-1; in experiment [1]; in the experiment on VCAM-1) were at least 50%, under 40% and at least 50%, respectively.
On to `O=C1C=C(c2ccc(O)cc2)C(=O)c2ccccc21` [EXAMPLE 20, 2-(4-Hydroxy-phenyl)-[1,4]naphthoquinone], for which the inhibition at 10 µM in the experiment on MCP-1 is under 50%; in experiment [1], under 40%; with VCAM-1, at least 50%.
Regarding `CN(C)Cc1ccc2c(=O)cc(-c3ccc(O)cc3)oc2n1` [EXAMPLE 26, 7-((dimethylamino)methyl-2-(4-hydroxyphenyl)-4H-pyrano[2,3-b]pyridin-4-one dihydrochloride], the inhibition at 50 µM was under 50% with MCP-1, at least 40% in experiment [1] and under 50% in the experiment on VCAM-1.
With `CN(C)CCOc1ccc(-c2cc(=O)c3cccnc3o2)cc1` [EXAMPLE 27, 2-(4-(2-(dimethylamino)ethoxy)phenyl)-4H-pyrano[2,3-b]pyridin-4-one dihydrochloride], the inhibition at 50 µM in the experiment with MCP-1 is under 50%; in experiment [1], at least 40%; with VCAM-1 it was under 50%.
For `O=c1cc(-c2ccncc2)oc2ncccc12` [EXAMPLE 30, 2-(pyridin-4-yl)-4H-pyrano[2,3-b]pyridin-4-one hydrochloride], the figures for the inhibition at 50 µM (with MCP-1; in experiment [1]; with VCAM-1) were under 50%, at least 40% and under 50%, respectively.
Consider `Cc1cc(-c2cc(=O)c3cccnc3o2)cc(C)c1OCCN1CCOCC1` [EXAMPLE 31, 2-(3,5-dimethyl-4-(2-morpholinoethoxy)phenyl)-4H-pyrano[2,3-b]pyridin-4-one hydrochloride], for which the inhibition at 50 µM in the experiment with MCP-1 was under 50%; in experiment [1] it was at least 40%; with VCAM-1, at least 50%.
With `Cc1cc(-c2cc(=O)c3cc(CN4CCCC4)cnc3o2)cc(C)c1O` [EXAMPLE 33, 2-(4-hydroxy-3,5-dimethylphenyl)-6-(pyrrolidin-1-ylmethyl)-4H-pyrano[2,3-b]pyridin-4-one dihydrochloride], the inhibition at 50 µM is at least 50% in the experiment with MCP-1, at least 40% in experiment [1] and under 50% with VCAM-1.
`COc1cc(OC)c2c(=O)cc(-c3ccncc3)oc2c1` [EXAMPLE 34, 5,7-dimethoxy-2-(pyridin-4-yl)-4H-chromen-4-one hydrochloride]: the inhibition at 50 µM is under 50% with MCP-1, at least 40% in experiment [1] and under 50% in the experiment on VCAM-1.
As for `O=c1cc(-c2ccccc2)oc2ncc(CN3CCCC3)cc12` [EXAMPLE 35, 2-phenyl-6-(pyrrolidin-1-ylmethyl)-4H-pyrano[2,3-b]pyridin-4-one hydrochloride], the inhibition at 50 µM was under 50% in the experiment on MCP-1, at least 40% in experiment [1] and under 50% in the experiment with VCAM-1.
Turning to `O=c1cc(-c2ccc(F)cc2)oc2ncc(CN3CCCC3)cc12` [EXAMPLE 37, 2-(4-fluorophenyl)-6-(pyrrolidin-1-ylmethyl)-4H-pyrano[2,3-b]pyridin-4-one hydrochloride], the inhibition at 50 µM is under 50% in the experiment on MCP-1, at least 40% in experiment [1] and at least 50% in the experiment on VCAM-1.
`Nc1ccc(-c2cc(=O)c3cccnc3o2)cc1` [EXAMPLE 38, 2-(4-aminophenyl)-4H-pyrano[2,3-b]pyridin-4-one hydrochloride]: the inhibition at 50 µM in the experiment on MCP-1 was under 50%; in experiment [1], at least 40%; with VCAM-1, under 50%.
For the molecule `CC(C)Oc1ccc(-c2cc(=O)c3cc(CN4CCCC4)cnc3o2)cc1` [EXAMPLE 39, 2-(4-isopropoxyphenyl)-6-(pyrrolidin-1-ylmethyl)-4H-pyrano[2,3-b]pyridinone hydrochloride], the inhibition at 50 µM was at least 50% in the experiment with MCP-1, at least 40% in experiment [1] and at least 50% in the experiment with VCAM-1.
For `Cc1cc(-c2cc3ncccc3c(=O)[nH]2)cc(C)c1O` [EXAMPLE 40, 7-(4-hydroxy-3,5-dimethylphenyl)-1,6-naphthyridin-5(6H)-one hydrochloride], the results for the inhibition at 50 µM (in the experiment on MCP-1; in experiment [1]; in the experiment with VCAM-1) were under 50%, at least 40% and under 50%, respectively.
Consider `COc1cc(O)nc2cc(-c3cc(C)c(O)c(C)c3)[nH]c(=O)c12` [EXAMPLE 41, 2-hydroxy-7-(4-hydroxy-3,5-dimethylphenyl)-4-methoxy-1,6-naphthyridin-5(6H)-one dihydrochloride], for which the inhibition at 50 µM in the experiment on MCP-1 is at least 50%; in experiment [1], at least 40%; in the experiment on VCAM-1 it was at least 50%.
For `CNc1nc(-c2cc(C)c(O)c(C)c2)cc2ccc(CN3CCN(C)CC3)cc12` [EXAMPLE 43, 2,6-dimethyl-4-(1-(methylamino)-7-((4-methylpiperazin-1-yl)methyl)isoquinolin-3-yl)phenol trihydrochloride], the inhibition at 50 µM was at least 50% with MCP-1, at least 40% in experiment [1] and at least 50% in the experiment on VCAM-1.
`COc1cc(OC)c2c(=O)[nH]c(-c3cc(C)c(OCCN4CCOCC4)c(C)c3)cc2c1` [EXAMPLE 48, 3-(3,5-dimethyl-4-(2-morpholinoethoxy)phenyl)-6,8-dimethoxyisoquinolin-1(2H)-one]: the inhibition at 50 µM in the experiment with MCP-1 is under 50%; in experiment [1] it was at least 40%; in the experiment with VCAM-1, at least 50%.
With `Cc1cccc2oc(-c3ccncc3)cc(=O)c12` [EXAMPLE 49, 5-methyl-2-(pyridin-yl)-4H-chromen-4-one], the inhibition at 10 µM was under 50% in the experiment on MCP-1, under 40% in experiment [1] and under 50% in the experiment with VCAM-1.
As to `CC(C)(Sc1cc(C(C)(C)C)c(O)c(C(C)(C)C)c1)Sc1cc(C(C)(C)C)c(O)c(C(C)(C)C)c1` [Probucol, probucol, reference compound], the inhibition at 10 µM in the experiment with MCP-1 was 15%; with VCAM-1, 19%.
`CO[C@H]1C[C@@H]2CC[C@@H](C)[C@@](O)(O2)C(=O)C(=O)N2CCCC[C@H]2C(=O)O[C@H]([C@H](C)C[C@@H]2CC[C@@H](O)[C@H](OC)C2)CC(=O)[C@H](C)/C=C(\C)[C@@H](O)[C@@H](OC)C(=O)[C@H](C)C[C@H](C)/C=C/C=C/C=C/1C` [Rapamycin, rapamycin, reference compound]: the inhibition at 50 µM in experiment [1] is 43%.
As to `Oc1ccc(C=Cc2cc(O)cc(O)c2)cc1` [Resveratrol, resveratrol, reference compound], the results for the inhibition at 50 µM with MCP-1 and in the experiment on VCAM-1 were 47% and 54%, respectively.
On to `CC(=O)O[C@H]1C(=O)[C@@]2(C)[C@H]([C@H](OC(=O)c3ccccc3)[C@]3(O)C[C@H](OC(=O)[C@H](O)[C@@H](NC(=O)c4ccccc4)c4ccccc4)C(C)=C1C3(C)C)[C@]1(OC(C)=O)CO[C@@H]1C[C@@H]2O` [Taxol, taxol, reference compound], for which the inhibition at 0.1 µM in experiment [1] (100 nM) was found to be 19%.
